Experimental data published in patent US6410040B1, “Polymeric compounds and methods of formulating same” (Chemeq Limited, priority 1998, dated 2002).
Blank lines part the entries; values can stand above or below the compound they belong to.

Legend:
[1] = tested on: A. niger; test: Minimal Kill Concentration Test; format: cell-based; settings: Experiment 1
Procedure: (§1) 2. Minimal Kill Concentration Test
(§2) Make serial 1 in 2 dilutions of the sample using sterile 0.85% saline. Add 0.1 mL of suspension of test organism to the dilution. Incubate at 37° C. for 24 hours. Subculture 1 mL from each tube into 10 mL sterile nutrient broth plus TWEEN 80; incubate at 37° C. for 24 hours.
(§3) If the Minimum Kill Concentrations of compounds A, B, and a mixture of A and B are a, b and m, respectively, then there is synergy (“S”) upon mixing A and B if
(§4) ie. S=(a+b)/m>1 for synergy

[2] = tested on: B. cereus; test: Minimal Kill Concentration Test; format: cell-based; settings: Experiment 1
Procedure: as §1, §2, §3, §4

[3] = tested on: C. albicans; test: Minimal Kill Concentration Test; format: cell-based; settings: Experiment 1
Procedure: as §1, §2, §3, §4

[4] = tested on: E. coli; test: Minimal Kill Concentration Test; format: cell-based; settings: Experiment 1
Procedure: as §1, §2, §3, §4

[5] = tested on: P. vulgaris; test: Minimal Kill Concentration Test; format: cell-based; settings: Experiment 1
Procedure: as §1, §2, §3, §4

[6] = tested on: Ps. aeruginosa; test: Minimal Kill Concentration Test; format: cell-based
Procedure: as §1, §2, §3, §4

[7] = tested on: S. aureus; test: Minimal Kill Concentration Test; format: cell-based
Procedure: as §1, §2, §3, §4

[8] = Migration of sunscreen agents across a membrane model for skin; format: in vitro ADME; settings: solution in ethanol
Procedure: The effects of the presence of poly(2-propenal, 2-propenoic acid) on the migration of various agents across a model for skin were studied as follows. Results are shown in Table 8: In a special apparatus, the samples were applied to one side of a 0.45 micron cellulose acetate membrane in contact with, on the other side, a stirred solution of ethanol. “After” 1.5 hours, the spectrum of the “ethanol” was compared with the “Before” solution of sample in the same solvent: […]

Compound: O=C(O)CN(CCN(CC(=O)O)CC(=O)O)CC(=O)O [EDTA, ethylene diamine tetra acetic acid]
- Minimum Kill Concentration A. niger [1]: 1250 p.p.m.
- Minimum Kill Concentration B. cereus [2]: 80 p.p.m.
- Minimum Kill Concentration C. albicans [3]: 155 p.p.m.
- Minimum Kill Concentration E. coli [4]: 80 p.p.m.
- Minimum Kill Concentration P. vulgaris [5]: 155 p.p.m.
- Minimum Kill Concentration Ps. aeruginosa ([6]; Experiment 1): 625 p.p.m.
- Minimum Kill Concentration S. aureus ([7]; Experiment 1): 625 p.p.m.

Compound: O=CCCCC=O [glutaraldehyde]
- Minimum Kill Concentration Ps. aeruginosa ([6]; Experiment 2): 155 p.p.m.
- Minimum Kill Concentration S. aureus ([7]; Experiment 2): 80 p.p.m.

- max (UV spectrum), Before [8]: max = 315 nm
Compound: CCCCC(CC)COC(=O)c1ccc(N(C)C)cc1 (stereo not shown) [octyl dimethyl p-aminobenzoate]

- max (UV spectrum), Before [8]: max = 310 nm
Compound: CCCCC(CC)COC(=O)C=Cc1ccc(OC)cc1 (stereo not shown) [octyl methoxy cinnimate]

Compound: Oc1ccccc1-c1ccccc1.[Na] [phenol, orthophenylphenol, sodium salt]
- Minimum Kill Concentration Ps. aeruginosa ([6]; Experiment 2): >10000 p.p.m.
- Minimum Kill Concentration S. aureus ([7]; Experiment 2): 20 p.p.m.
